Test results: patent US20260069584A1, “METHODS OF TREATING CHRONIC MYELOID LEUKEMIA USING THE TYROSINE KINASE INHIBITOR VODOBATINIB” (Sun Pharma Advanced Research Company Ltd., priority 2022, published 2026)
Values joined by “and” are separate entries in the source; they are usually repeats but may differ in a detail not shown here. Identical values can stand only once. Like-named read-outs stand apart in the source and are kept apart here.

How the values were obtained:
[1] = Single ascending dose (SAD) study in healthy male volunteers: pharmacokinetics; assay type: in vivo, human; settings: for Dose proportionality, Slope Estimate: 6 to 24 mg, n 18, power model; for Dose proportionality, Coefficient of determination / Dose proportionality, Intercept Estimate: n 18
Method: Initially in the single ascending dose (SAD) study the safety, tolerability, and pharmacokinetics of the compound of Formula I at 6 mg, 12 mg, and 24 mg doses in healthy human male volunteers were evaluated. In this study, the healthy male volunteers within the mean age group of 28.7-35 years were orally administered an investigational medicinal product (IMP) or a placebo after an overnight fast (of at least 8 hours). The IMP used in this study was a hard gelatin capsule comprising the compound of Formula I of varying sizes containing either 6 mg or 24 mg of the compound of Formula I and the excipients. For the 12 mg dose, two capsules of 6 mg were used. The placebo formulation containing the excipients matched the compound of Formula I capsules in shape, size, and color. […] The median time of maximum concentration (Tmax: 2.5-3 hours, across dose range) was independent of the dose level. Dose-related increases in exposure (AUC and Cmax) were observed. […] The inter-subject variability, for the PK parameters, was generally higher in the 12 mg dose group when compared with that in the 6 mg and 24 mg dose groups (Table 07, and FIG. 1)
Referring to FIG. 1, The dose proportionality assessment using ANCOVA was assessed in the PK analysis set. […] The estimates for the slope for all exposure parameters were between 0.9833 and 1.016.

[2] = system: Ph+ CML (CP CML, AP CML and BP CML) and Ph+ ALL; experiment: Parts B and C pooled (n=59): disease response; assay type: in vivo, human
Method: Additionally, 71.2% of all the subjects were refractory and/or intolerant to ≥3 TKIs. The MCyR and MMR in subjects with CP CML were 63% and 34.8%, respectively, and those with more aggressive disease viz. AP CML, BP CML and Ph+ ALL were 53.8% and 30.8%, respectively.
The MTD of the compound of Formula I was 204 mg while RP2D was 174 mg QD. Anti-leukemic activity in the form of hematological, cytogenetic and molecular responses was reported across Parts B and C (n=59). Major cytogenetic responses were reported in 61% of subjects while major molecular responses were reported in 33.9% of subjects across doses. […] There is limited evidence of activity in the CML literature in such a heavily pre-treated population.

[3] = male, human, plasma, oral, 6 mg (N = 6), mean
[4] = male, human, plasma, oral, 12 mg (N = 6), mean
[5] = male, human, plasma, oral, 24 mg (N = 6), mean

Cc1ccc(C(=O)NNC(=O)c2c(C)cccc2Cl)cc1C#Cc1cnc2ccccc2c1 [compound of Formula I, N′-(2-chloro-6-methylbenzoyl)-4-methyl-3-[2-(3-quinolyl)ethynyl]-benzohydrazide]
CL/F ([1]; 6 mg (N = 6), geometric mean): 3.708 L/h | AUC(0-inf)/D ([1]; 6 mg (N = 6), mean): 289 [ng/mL × hour]/mg | CL/F ([1]; 12 mg (N = 6), geometric mean): 4.956 L/h | AUC(0-inf)/D ([1]; 12 mg (N = 6), mean): 230.3 [ng/mL × hour]/mg | Tmax ([1]; 12 mg (N = 6), median): 3 h | CL/F ([1]; 24 mg (N = 6), geometric mean): 3.8 L/h | AUC(0-inf)/D ([1]; 24 mg (N = 6), mean): 274.3 [ng/mL × hour]/mg | Tmax ([1]; 24 mg (N = 6), median): 2.75 h | Dose proportionality, Slope Estimate ([1]; AUC(0-inf) (ng*h/mL)): 0.9833 | Dose proportionality, Coefficient of determination ([1]; AUC(0-inf) (ng*h/mL)): 0.6145 | Dose proportionality, Intercept Estimate ([1]; AUC(0-inf) (ng*h/mL)): 5.534 | Dose proportionality, Slope Estimate ([1]; AUC(0-last) (ng*h/mL)): 1.016 | Dose proportionality, Coefficient of determination ([1]; AUC(0-last) (ng*h/mL)): 0.6425 | Dose proportionality, Intercept Estimate ([1]; AUC(0-last) (ng*h/mL)): 5.389 | Dose proportionality, Slope Estimate ([1]; Cmax (ng/mL)): 0.9884 | Dose proportionality, Coefficient of determination ([1]; Cmax (ng/mL)): 0.6832 | Dose proportionality, Intercept Estimate ([1]; Cmax (ng/mL)): 3.470 | apparent systemic clearance (CL/F) ([1]; across dose range 6, 12, 24 mg): 3.708 to 4.956 L/h | Vd/F ([1]; male, human, plasma, oral, 6 mg, 6 mg (N = 6), geometric mean, read-out: Vz/F): 91.6 L | half-life ([1]; male, human, plasma, oral, 6 mg, 6 mg (N = 6), geometric mean, read-out: t1/2 (converted)): 17.1 h | AUC(0-t) ([1]; male, human, plasma, oral, 6 mg, 6 mg (N = 6), mean, read-out: AUC(0-24)): 1140 ng·h/mL | AUC(0-t) ([1]; male, human, plasma, oral, 6 mg, 6 mg (N = 6), mean, read-out: AUC(0-last)): 1570 ng·h/mL | Vd/F ([1]; male, human, plasma, oral, 12 mg, 12 mg (N = 6), geometric mean, read-out: Vz/F): 90.8 L | half-life ([1]; male, human, plasma, oral, 12 mg, 12 mg (N = 6), geometric mean, read-out: t1/2 (converted)): 12.7 h | AUC(0-t) ([1]; male, human, plasma, oral, 12 mg, 12 mg (N = 6), mean, read-out: AUC(0-24)): 1920 ng·h/mL | AUC(0-t) ([1]; male, human, plasma, oral, 12 mg, 12 mg (N = 6), mean, read-out: AUC(0-last)): 2640 ng·h/mL | Vd/F ([1]; male, human, plasma, oral, 24 mg, 24 mg (N = 6), geometric mean, read-out: Vz/F): 69.8 L | half-life ([1]; male, human, plasma, oral, 24 mg, 24 mg (N = 6), geometric mean, read-out: t1/2 (converted)): 12.7 h | AUC(0-t) ([1]; male, human, plasma, oral, 24 mg, 24 mg (N = 6), mean, read-out: AUC(0-24)): 4760 ng·h/mL | AUC(0-t) ([1]; male, human, plasma, oral, 24 mg, 24 mg (N = 6), mean, read-out: AUC(0-last)): 6240 ng·h/mL | AUC(0-t) ([1]; male, human, plasma, oral, 24 mg, SAD study, read-out: maximum value of AUC(0-24)): 6080 ng·h/mL | half-life ([1]; male, human, plasma, oral, 24 mg, across dose range 6, 12, 24 mg, read-out: apparent terminal half-life (t1/2)): 12.7 to 17.1 h | Vd/F ([1]; male, human, plasma, oral, 24 mg, across dose range 6, 12, 24 mg, read-out: apparent volume of distribution (Vz/F)): 69.8 to 91.6 L | AUC(0-t) ([1]; male, human, plasma, oral, 24 mg, highest dose level (24 mg), read-out: mean AUC(0-24)): 4760 ng·h/mL | AUC(0-inf) [1, 3]: 1740 ng·h/mL | Cmax [1, 3]: 234 ng/mL | Tmax ([1]; male, human, plasma, oral, 6 mg (N = 6), median, read-out: tmax): 2.5 h | AUC(0-inf) [1, 4]: 2770 ng·h/mL | Cmax [1, 4]: 285 ng/mL | AUC(0-inf) [1, 5]: 6580 ng·h/mL | Cmax [1, 5]: 909 ng/mL | Tmax ([1]; male, human, plasma, oral, across dose range 6, 12, 24 mg, read-out: median time of maximum concentration (Tmax)): 2.5 to 3 h | absorption after oral administration ([1]; single dose 6 mg, 12 mg, or 24 mg): rapidly absorbed | major molecular response deepened to complete molecular response ([2]; 174 mg initial dose, 2 subjects): 9.1% | complete hematological response ([2]; 174 mg initial dose, 20 out of 24 subjects): 83.3% | MMR ([2]; 29 subjects with prior ponatinib (n=11 of 29)): 37.93% and 37.9% | MCyR ([2]; 29 subjects with prior ponatinib (n=15 of 29)): 51.7% | MCyR ([2]; AP CML, BP CML and Ph+ ALL): 53.8% | MMR ([2]; AP CML, BP CML and Ph+ ALL): 30.8% | major cytogenetic response ([2]; RP2D of 174 mg, independent of prior ponatinib exposure): 50% | major cytogenetic response (MCyR) ([2]; all subjects, across doses): 61% | major molecular response (MMR) ([2]; all subjects, across doses): 33.9% | MCyR ([2]; subjects with CP CML): 63% | MMR ([2]; subjects with CP CML): 34.8%
